From patent US20100105103A1, “ALCOHOL TOLERANT ESCHERICHIA COLI AND METHODS OF PREPARATION THEREOF” (NATIONAL TAIWAN UNIVERSITY, priority 2008, published 2010)

What was measured:
[1] = tested on: E. coli JH017 (potG- mutant overexpressing YqhD); test: Growth curve of JH017 strain with various concentrations of alcohols (OD595); assay type: cell-based, Escherichia coli
Description: (§1) After 2 h of induction, the cultures were diluted to 0.35 OD595 in a fresh LB medium supplemented with kanamycin and 50 μg/ml of chloraphenicol, with the addition of 0-18% ethanol, 0-5% 1-propanol, 0-5% iso-propanol, 0-7% 1-butanol, and 0-7% iso-butanol in triplicate.
(§2) Growth of JH016 was inhibited by 1-butanol at concentrations at least 2.5% (v/v), isobutanol at least 4%, 1-propanol at least 5%, isopropanol at least 5%, or ethanol at least 10%. And the growth of JH017 was inhibited by 1-butanol at concentrations at least 2% (v/v), isobutanol at least 3.5%, 1-propanol at least 5%, isopropanol at least 5%, or ethanol at least 12%. The abovementioned concentration of alcohol would for sure inhibit the growth of wild type E. coli.

[2] = tested on: E. coli JH016 (potG- mutant overexpressing Hmp); test: Growth curve of JH016 strain with various concentrations of alcohols (OD595); assay type: cell-based, Escherichia coli; conditions: for alcohol concentration at which growth of JH016 was inhibited: JH016, OD595
Description: as §1, §2

[3] = tested on: E. coli JH007 (ydhF- mutant overexpressing PhoH); test: Growth curve of JH007 strain with various concentrations of alcohols (OD595); assay type: cell-based, Escherichia coli; conditions: for alcohol concentration at which growth of JH007 was inhibited: JH007, IPTG-induced, LB medium, 37° C., OD595
Description: as §1
Referring to FIG. 7, cell growth condition of JH007 strain was monitored with OD595 with the changes of cell turbidities.

[4] = tested on: E. coli wild-type strain BW25113; conditions: wild type E. coli BW25113, LB medium, OD600
Description: E. coli wild-type strain BW25113 was cultured overnight and then inoculated into a fresh LB medium containing 0-10% (v/v) of 1-butanol. Cells were cultivated with shaking and the optical density at 600 nm was measured every 15 minutes.

E. coli JH007 = conditions: JH007, 2% v/v 1-butanol, 4 h, IPTG-induced vs uninduced
Description: These 18 strains were cultivated overnight then inoculated into LB media supplemented with 30 μg/ml of kanamycin and 50 μg/ml of chloraphenicol. IPTG were added into the media at the final concentration of 0.1 mM. […] Cells were incubated at 37° C. with shaking and the optical density was measured at the beginning and after 4 h. The survival rates were calculated using the following formula.
Survival rate=difference of OD595 between mutants with IPTG induced (4 h-0 h)/difference of OD595 between mutants without IPTG induced (4 h-0 h)×100%

wild type E. coli = conditions: conventional fermentation process; cited from earlier work

Row | Molecule | alcohol concentration at which growth of JH017 was inhibited [1] | tolerance of ethanol concentration (up to) ([2]; JH016) | alcohol concentration at which growth of JH016 was inhibited [2] | alcohol concentration at which growth of JH007 was inhibited [3] | concentration of 1-butanol at which growth was almost completely inhibited [4] | 1-butanol tolerance (survival rate) relative to control (E. coli JH007) | concentration of 1-butanol at which growth was inhibited (wild type E. coli) | tolerance of 1-butanol concentration (up to) ([3]; JH007)
1 | CCO [ethanol] | at least 12 % (v/v) | up to 12 % (v/v) | at least 10 % (v/v) |  |  |  |  | 
2 | CCCO [1-propanol] |  |  |  | at least 6 % (v/v) |  |  |  | 
3 | 1-butanol | at least 2 % (v/v) |  | at least 2.5 % (v/v) | at least 5 % (v/v) | ≥ 1.5 % (v/v) | 5.5 fold | 1% | up to 5 % (v/v)
4 | CC(C)CO [isobutanol] | at least 3.5 % (v/v) |  | at least 4 % (v/v) | at least 3.5 % (v/v) |  |  |  | 
